Source: US8455525B2, “Selective androgen receptor modulators” (Radius Health, Inc., priority 2008, dated 2013)
Where a name gives a salt, the structure may show the parent alone.

The compounds below were run against T1, androgen receptor (AR) (Rattus norvegicus, UniProt P15207) (assay: androgen receptor binding assay (fluorescence polarization, Fluormone AL Green competition)). Settings: not given.
T1 construct: purchased Invitrogen, Madison, Wis
T1 sequence (P15207 651-902 limits assumed): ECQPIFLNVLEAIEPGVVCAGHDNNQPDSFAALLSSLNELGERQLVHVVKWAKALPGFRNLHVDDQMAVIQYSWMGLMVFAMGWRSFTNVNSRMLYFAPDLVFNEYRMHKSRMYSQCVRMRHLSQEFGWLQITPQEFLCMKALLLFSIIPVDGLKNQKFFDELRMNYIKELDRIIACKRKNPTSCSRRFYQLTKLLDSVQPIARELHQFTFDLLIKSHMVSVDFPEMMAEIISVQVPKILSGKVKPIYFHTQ
Experimental: The assay was performed as specified by the manufacturer (Invitrogen, Madison, Wis.). Briefly, 1 μl of 10 mM compound was added to 500 μl of AR screening buffer in a 1.5 ml eppendorf tube to make a 2×10^−5M stock. 10-fold serial dilutions of the test compounds were prepared ranging in concentration from 10^−5M to 10^−12M. Each dilution was added in triplicate to a black 384-microtiter plate. The test compounds will be diluted 2-fold in the final reaction. 2×AR-Fluormone™ complex was prepared with 2 nM Flourmone AL Green™ and 30 nM AR. 25 μl of 2× complex was aliquoted to each reaction well, such that the final reaction volume was 50 μl per well. Plate was sealed with a foil cover and incubated in the dark at room temperature for 4 h. Polarization values for each well were measured. The polarization values were plotted against the concentration of the test compound. […] As a control, a competition curve for R1881 (methyltrienolone) was performed for each assay. Curve Fitting was performed using GraphPad Prism® software from GraphPad™ Software Inc. Binding data are reported as a single determination if the experiment was run once only and as the average of experiments if the binding experiment was performed two or more times with that compound.
Where multiple data points have been taken, the value reported is the average of the multiple determinations.
In the case of `Cc1c(N[C@@H](c2nnc(-c3ccc(NC(=O)c4ccccc4)cc3)o2)[C@@H](C)O)ccc(C#N)c1Cl` [Example 69, N-(4-(5-((1R,2R)-1-(3-Chloro-4-cyano-2-methylphenylamino)-2-hydroxypropyl)-1,3,4-oxadiazol-2-yl)phenyl)benzamide], the IC50 is reported as > 1000 nM.
Compound `C[C@@H](O)[C@@H](Nc1ccc(C#N)c2ccccc12)c1nnc(-c2ccccc2)o1` [Example 52, 4-((1R,2R)-2-Hydroxy-1-(5-phenyl-1,3,4-oxadiazol-2-yl)propylamino)-1-naphthonitrile] has an IC50 of 9 nM.
Compound `Cc1c(N[C@@H](c2nnc(-c3cccc(O)c3)o2)[C@@H](C)O)ccc(C#N)c1Cl` [Example 9, 2-chloro-4-((1R,2R)-2-hydroxy-1-(5-(3-hydroxyphenyl)-1,3,4-oxadiazol-2-yl)propylamino)-3-methylbenzonitrile] has an IC50 of 10 nM.
`Cc1c(N[C@@H](c2nnc(-c3ccc(CO)cc3)o2)[C@H](C)O)ccc(C#N)c1Cl` [Example 49, 2-Chloro-4-((1R,2S)-2-hydroxy-1-(5-(4-(hydroxymethyl)phenyl)-1,3,4-oxadiazol-2-yl)propylamino)-3-methylbenzonitrile] showed an IC50 of 2 nM.
Work on `Cc1c(N[C@@H](c2nnc(-c3ccc(C(F)(F)F)cc3)o2)[C@H](C)O)ccc(C#N)c1Cl` [Example 68, 2-chloro-4-((1R,2S)-2-hydroxy-1-(5-(4-(trifluoromethyl)phenyl)-1,3,4-oxadiazol-2-yl)propylamino)-3-methylbenzonitrile] yielded an IC50 of 12 nM.
Work on `COc1cccc(-c2nnc([C@H](Nc3ccc(C#N)c(Cl)c3C)[C@H](C)O)o2)c1` [Example 6, 2-chloro-4-((1R,2S)-2-hydroxy-1-(5-(3-methoxyphenyl)-1,3,4-oxadiazol-2-yl)propylamino)-3-methylbenzonitrile] yielded an IC50 of 16 nM.
`C[C@@H](O)[C@@H](Nc1ccc(C#N)c2sccc12)c1nnc(-c2ccccc2)o1` [Example 65, 4-((1R,2R)-2-hydroxy-1-(5-phenyl-1,3,4-oxadiazol-2-yl)propylamino)benzo[b]thiophene-7-carbonitrile] gave an IC50 of 1 nM.
Compound `Cc1c(N[C@@H](c2nnc(-c3ccc(O)c(Cl)c3)o2)[C@H](C)O)ccc(C#N)c1Cl` [Example 37, 2-Chloro-4-((1R,2S)-1-(5-(3-chloro-4-hydroxyphenyl)-1,3,4-oxadiazol-2-yl)-2-hydroxypropylamino)-3-methylbenzonitrile] has an IC50 of 0.2 nM.
`Cc1c(N[C@@H](c2nnc(-c3ccc(C#N)cc3)o2)[C@H](C)O)ccc(C#N)c1Cl` [Example 22, 2-chloro-4-((1R,2S)-1-(5-(4-cyanophenyl)-1,3,4-oxadiazol-2-yl)-2-hydroxypropylamino)-3-methylbenzonitrile] showed an IC50 of 2 nM.
In the case of `Cc1c(N[C@@H](c2nnc(-c3ccc(F)c(O)c3)o2)[C@H](C)O)ccc(C#N)c1Cl` [Example 40, 2-Chloro-4-((1R,2S)-1-(5-(4-fluoro-3-hydroxyphenyl)-1,3,4-oxadiazol-2-yl)-2-hydroxypropylamino)-3-methylbenzonitrile], the IC50 is reported as 0.2 nM.
Compound `Cc1c(N[C@@H](c2nnc(-c3ccc(I)cc3)o2)[C@H](C)O)ccc(C#N)c1Cl` [Example 57, 2-Chloro-4-((1R,2S)-2-hydroxy-1-(5-(4-iodophenyl)-1,3,4-oxadiazol-2-yl)propylamino)-3-methylbenzonitrile] has an IC50 of 11 nM.
`C[C@@H](O)[C@@H](Nc1ccc(C#N)c2sccc12)c1nnc(-c2ccc(F)cc2)o1` [Example 64, 4-((1R,2R)-1-(5-(4-fluorophenyl)-1,3,4-oxadiazol-2-yl)-2-hydroxypropylamino)benzo[b]thiophene-7-carbonitrile] showed an IC50 of 1 nM.
Compound `C[C@H](O)[C@@H](Nc1ccc(C#N)c2ccccc12)c1nnc(-c2ccccc2)o1` [Example 13, 4-((1R,2S)-2-hydroxy-1-(5-phenyl-1,3,4-oxadiazol-2-yl)propylamino)-1-naphthonitrile] has an IC50 of 5 nM.
In the case of `Cc1c(N[C@@H](c2nnc(-c3ccc(-n4cccn4)cc3)o2)[C@H](C)O)ccc(C#N)c1Cl` [Example 53, 4-((1R,2S)-1-(5-(4-(1H-Pyrazol-1-yl)phenyl)-1,3,4-oxadiazol-2-yl)-2-hydroxypropylamino)-2-chloro-3-methylbenzonitrile], the IC50 is reported as 1 nM.
`Cc1c(N[C@@H](c2nnc(-c3ccc(F)cc3F)o2)[C@@H](C)O)ccc(C#N)c1Cl` [Example 35, 2-Chloro-4-((1R,2R)-1-(5-(2,4-difluorophenyl)-1,3,4-oxadiazol-2-yl)-2-hydroxypropylamino)-3-methylbenzonitrile] showed an IC50 of 0.2 nM.
Work on `C[C@H](O)[C@@H](Nc1ccc(C#N)c(Cl)c1Cl)c1nnc(-c2ccccc2)o1` [Example 33, 2,3-dichloro-4-((1R,2S)-2-hydroxy-1-(5-phenyl-1,3,4-oxadiazol-2-yl)propylamino)benzonitrile] yielded an IC50 of 15 nM.
In the case of `C[C@@H](O)[C@@H](Nc1ccc(C#N)c(Cl)c1)c1nnc(-c2ccc(C#N)cc2)o1` [Example 46, 2-Chloro-4-((1R,2R)-1-(5-(4-cyanophenyl)-1,3,4-oxadiazol-2-yl)-2-hydroxypropylamino)-benzonitrile], the IC50 is reported as 6 nM.
`Cc1c(N[C@@H](c2nnc(-c3ccc(C#N)cc3)o2)[C@@H](C)O)ccc(C#N)c1C(F)(F)F` [Example 31, 4-((1R,2R)-1-(5-(4-cyanophenyl)-1,3,4-oxadiazol-2-yl)-2-hydroxypropylamino)-3-methyl-2-(trifluoromethyl)benzonitrile] showed an IC50 of 5.9 nM.
Work on `Cc1nnc([C@H](Nc2ccc(C#N)c(Cl)c2C)[C@H](C)O)o1` [Example 43, 2-Chloro-4-((1R,2S)-2-hydroxy-1-(5-methyl-1,3,4-oxadiazol-2-yl)propylamino)-3-methylbenzonitrile hydrochloride] yielded an IC50 of 3 nM.
Compound `Cc1c(N[C@@H](c2nc(-c3ccccc3)no2)[C@@H](C)O)ccc(C#N)c1Cl` [Example 18, 2-chloro-4-((1R,2R)-2-hydroxy-1-(3-phenyl-1,2,4-oxadiazol-5-yl)propylamino)-3-methylbenzonitrile] has an IC50 of 60 nM.
`C[C@H](O)[C@@H](Nc1ccc(C#N)c(Cl)c1)c1nnc(-c2ccc(C#N)cc2)o1` [Example 50, 2-Chloro-4-((1R,2S)-1-(5-(4-cyanophenyl)-1,3,4-oxadiazol-2-yl)-2-hydroxypropylamino)benzonitrile] gave an IC50 of 5 nM.
For `CCc1c(N[C@@H](c2nnc(-c3ccc(C#N)cc3)o2)[C@@H](C)O)ccc(C#N)c1Cl` [Example 54, 2-Chloro-4-((1R,2R)-1-(5-(4-cyanophenyl)-1,3,4-oxadiazol-2-yl)-2-hydroxypropylamino)-3-ethylbenzonitrile], the IC50 was 1 nM.
For `Cc1c(N[C@H](CCO)c2nnc(-c3ccc(C#N)cc3)o2)ccc(C#N)c1Cl` [Example 79, (R)-2-chloro-4-(1-(5-(4-cyanophenyl)-1,3,4-oxadiazol-2-yl)-3-hydroxypropylamino)-3-methylbenzonitrile], the IC50 was 2 nM.
For `Cc1c(N[C@@H](c2nnc(-c3ccc(F)cc3)s2)[C@@H](C)O)ccc(C#N)c1Cl` [Example 28, 2-chloro-4-((1R,2R)-1-(5-(4-fluorophenyl)-1,3,4-thiadiazol-2-yl)-2-hydroxypropylamino)-3-methylbenzonitrile], the IC50 was 16 nM.
Work on `CCc1c(N[C@@H](c2nnc(-c3ccc(C#N)cc3)o2)[C@H](C)O)ccc(C#N)c1Cl` [Example 47, 2-Chloro-4-((1R,2S)-1-(5-(4-cyanophenyl)-1,3,4-oxadiazol-2-yl)-2-hydroxypropylamino)-3-ethylbenzonitrile] yielded an IC50 of 1 nM.
With `Cc1c(NC(c2nnc(-c3ccccc3)o2)C(O)c2ccccc2)ccc(C#N)c1Cl` (racemic) [Example 38, DL-Threo-2-chloro-4-(2-hydroxy-2-phenyl-1-(5-phenyl-1,3,4-oxadiazol-2-yl)ethylamino)-3-methylbenzonitrile] the IC50 was 60 nM.
For `CCc1c(N[C@@H](c2nnc(-c3ccccc3)o2)[C@H](C)O)ccc(C#N)c1Cl` [Example 11, 2-chloro-3-ethyl-4-((1R,2S)-2-hydroxy-1-(5-phenyl-1,3,4-oxadiazol-2-yl)propylamino)benzonitrile], the IC50 was 12 nM.
`Cc1c(N[C@@H](c2nnc(-c3cccc(F)c3)o2)[C@H](C)O)ccc(C#N)c1Cl` [Example 81, 2-chloro-4-((1R,2S)-1-(5-(3-fluorophenyl)-1,3,4-oxadiazol-2-yl)-2-hydroxypropylamino)-3-methylbenzonitrile] showed an IC50 of 2 nM.

Same assay, conditions: single determination or average of multiple determinations; read-out: Binding IC50 (AR-Binding Affinity)
Compound `Cc1c(N[C@@H](c2nnc(-c3ccccc3)o2)C(C)(C)O)ccc(C#N)c1Cl` [Example 14, (R)-2-chloro-4-(2-hydroxy-2-methyl-1-(5-phenyl-1,3,4-oxadiazol-2-yl)propylamino)-3-methylbenzonitrile] has an IC50 of 17 nM.
For `C[C@H](O)[C@@H](Nc1ccc(C#N)c(Cl)c1)c1nnc(-c2ccccc2)o1` [Example 12, 2-chloro-4-((1R,2S)-2-hydroxy-1-(5-phenyl-1,3,4-oxadiazol-2-yl)propylamino)benzonitrile], the IC50 was 300 nM.
For `C[C@H](O)[C@@H](Nc1ccc(C#N)c2sccc12)c1nnc(-c2ccc(C#N)cc2)o1` [Example 60, 4-((1R,2S)-1-(5-(4-cyanophenyl)-1,3,4-oxadiazol-2-yl)-2-hydroxypropylamino)benzo[b]thiophene-7-carbonitrile], the IC50 was 8 nM.
